Key:
Test in all cases: post-emergence test, field trial (Examples 1-5)
Assay type in all cases: in vivo
Erodium cicuta = conditions: 28 d, FT; pelargonic acid 5440 g/ha, flazasulfuron 50 g/ha; 8 L/ha
Source text: (§1) The expected activity of a given combination of two or three herbicides can be calculated as follows according to a calculation method by Colby (cf. COLBY, S. R.: “Calculating synergistic and antagonistic responses of herbicide combinations”, • Weeds 15, pages 20-22, 1967): • If X=% damage by herbicide (A) at an application rate of m g/ha, • Y=% damage by herbicide (B) at an application rate of n g/ha, • E=the expected damage by herbicides (A) and (B) at application rates of m and n […] and, • then for a combination:
(§2) Individual compositions comprising pelargonic acid or flazasulfuron are compared with a herbicide composition according to the invention comprising pelargonic acid and flazasulfuron.
(§3) Herbicidal activity was determined by performing a post-emergence test. […] The corresponding mixture was in the form of a spray liquor. Besides, spray liquors of individual compositions comprising pelargonic acid or flazasulfuron were used.
(§4) Tests were performed on test fields (field trials) or in pots (pot trials).

Sonchus oleraceus L. = conditions: FT, pelargonic acid 5440 g/ha, flazasulfuron 50 g/ha, 8 L/ha
Source text: as §1, §2, §3, §4

Festuca ovina = conditions: FT
Source text: as §1, §2, §3, §4

Convolvulus arvensis L. = conditions: 3 d, FT; pelargonic acid 5440 g/ha, flazasulfuron 50 g/ha; 8 L/ha
Source text: as §1, §2, §3, §4

Veronica persica = conditions: FT, pelargonic acid 5440 g/ha, flazasulfuron 50 g/ha, 8 L/ha
Source text: as §1, §2, §3, §4

Digitaria sang = conditions: FT, pelargonic acid 5440 g/ha, flazasulfuron 50 g/ha, 8 L/ha
Source text: as §1, §2, §3, §4

[1] = 3 d, pelargonic acid 10880 g/ha, flazasulfuron 25 g/ha, 16 L/ha
[2] = 3 d, pelargonic acid 21760 g/ha, flazasulfuron 25 g/ha, 32 L/ha
[3] = 7 d, pelargonic acid 10880 g/ha, flazasulfuron 25 g/ha, 16 L/ha
[4] = 7 d, pelargonic acid 10880 g/ha, flazasulfuron 50 g/ha, 16 L/ha
[5] = 7 d, pelargonic acid 21760 g/ha, flazasulfuron 25 g/ha, 32 L/ha
[6] = 7 d, pelargonic acid 21760 g/ha, flazasulfuron 50 g/ha, 32 L/ha
[7] = 13 d, pelargonic acid 10880 g/ha, flazasulfuron 25 g/ha, 16 L/ha
[8] = 13 d, pelargonic acid 10880 g/ha, flazasulfuron 50 g/ha, 16 L/ha
[9] = 13 d, pelargonic acid 21760 g/ha, flazasulfuron 25 g/ha, 32 L/ha
[10] = 13 d, pelargonic acid 21760 g/ha, flazasulfuron 50 g/ha, 32 L/ha
[11] = 23 d, pelargonic acid 10880 g/ha, flazasulfuron 25 g/ha, 16 L/ha
[12] = 23 d, pelargonic acid 10880 g/ha, flazasulfuron 50 g/ha, 16 L/ha
[13] = 23 d, pelargonic acid 21760 g/ha, flazasulfuron 25 g/ha, 32 L/ha
[14] = 23 d, pelargonic acid 21760 g/ha, flazasulfuron 50 g/ha, 32 L/ha
[15] = 30 d, pelargonic acid 10880 g/ha, flazasulfuron 25 g/ha, 16 L/ha
[16] = 30 d, pelargonic acid 21760 g/ha, flazasulfuron 25 g/ha, 32 L/ha
[17] = 38 d, pelargonic acid 10880 g/ha, flazasulfuron 25 g/ha, 16 L/ha
[18] = 38 d, pelargonic acid 21760 g/ha, flazasulfuron 25 g/ha, 32 L/ha

SMILES	herbicidal effect (Erodium cicuta)	herbicidal effect (Sonchus oleraceus L.; 3 d)	herbicidal effect (Sonchus oleraceus L.; 7 d)	herbicidal effect (Sonchus oleraceus L.; 13 d)	herbicidal effect (Sonchus oleraceus L.; 28 d)	herbicidal effect (Sonchus oleraceus L.; 58 d)	herbicidal effect (Festuca ovina; [1])	herbicidal effect (Festuca ovina; [2])	herbicidal effect (Festuca ovina; [3])	herbicidal effect (Festuca ovina; [4])	herbicidal effect (Festuca ovina; [5])	herbicidal effect (Festuca ovina; [6])	herbicidal effect (Festuca ovina; [7])	herbicidal effect (Festuca ovina; [8])	herbicidal effect (Festuca ovina; [9])	herbicidal effect (Festuca ovina; [10])	herbicidal effect (Festuca ovina; [11])	herbicidal effect (Festuca ovina; [12])	herbicidal effect (Festuca ovina; [13])	herbicidal effect (Festuca ovina; [14])	further results
COc1cc(OC)nc(NC(=O)NS(=O)(=O)c2ncccc2C(F)(F)F)n1 [Flazasulfuron, 1-(4,6-dimethoxypyrimidin-2-yl)-3-(3-trifluoromethyl-2-pyridylsulfonyl)urea]	95%	0%	0%	2.5%	12.5%	10%	0%	0%	30%	20%	30%	20%	30%	20%	30%	20%	75%	0%	75%	0%	herbicidal effect (Festuca ovina; [15]): 75%; herbicidal effect (Festuca ovina; [16]): 75%; herbicidal effect (Festuca ovina; [17]): 80%; herbicidal effect (Festuca ovina; [18]): 80%; herbicidal effect (Convolvulus arvensis L.): 0%; herbicidal effect (Veronica persica; 3 d): 2.5%; herbicidal effect (Veronica persica; 7 d): 7.5%; herbicidal effect (Veronica persica; 56 d): 16.3%; herbicidal effect (Digitaria sang; 3 d): 2.5%; herbicidal effect (Digitaria sang; 7 d): 13.3%; herbicidal effect (Digitaria sang; 12 d): 37.3%; herbicidal effect (Digitaria sang; 72 d): 3.8%
CCCCCCCCC(=O)O [Pelargonic acid, nonanoic acid]	82.5%	2.5%	1.3%	3.8%	1.3%	0%	20%	45%	20%	20%	30%	30%	0%	0%	0%	0%	0%	0%	0%	0%	herbicidal effect (Festuca ovina; [15]): 0%; herbicidal effect (Festuca ovina; [16]): 20%; herbicidal effect (Festuca ovina; [17]): 0%; herbicidal effect (Festuca ovina; [18]): 0%; herbicidal effect (Convolvulus arvensis L.): 11.3%; herbicidal effect (Veronica persica; 3 d): 8.8%; herbicidal effect (Veronica persica; 7 d): 20%; herbicidal effect (Veronica persica; 56 d): 16.3%; herbicidal effect (Digitaria sang; 3 d): 51.3%; herbicidal effect (Digitaria sang; 7 d): 30.8%; herbicidal effect (Digitaria sang; 12 d): 5%; herbicidal effect (Digitaria sang; 72 d): 0%
